{"source": "patent US10858322B2", "about": "“Process for preparing 1-isobutyryl-1′-((1-(4,4,4-trifluorobutyl)-4,5,6,7-tetrahydro-1H-benzo[D]imidazol-2-yl)methyl)spiro[azetidine-3,3′-indolin]-2′-one” (SHANDONG DANHONG PHARMACEUTICAL CO., LTD., priority 2015, dated 2020)", "key": {"[1]": {"experiment": "Stability experiment of crystal form A in different solvents (XRPD)", "assay_type": "physicochemical", "conditions": "2 days", "experimental": "The X-Ray Powder Diffraction method is as follows:\nInstrument: Bruker D8 ADVANCE X-Ray diffractometer; Target: Cu: K-Alpha; Wavelength λ=1.54179 Å; Tube Voltage: 40 kV; Tube Current: 40 mA; Scanning scope: 4-40°; Sample Rotation speed: 15 rpm; Scanning speed: 10°/min.\nThe mixture was stirred at 40° C. If the compound was completely dissolved, the sample was allowed to cool to room temperature, and if the solid was precipitated, the mixture was continued to stir; and if the sample remained in solution, the solvent was naturally evaporated to remove. After all the suspensions were stirred for 2 days, the solids in all samples were collected and XRPD was used to detect the crystal form state."}, "[2]": {"experiment": "Solid physical stability of crystal form A under different temperature and humidity conditions", "assay_type": "physicochemical", "conditions": "10th day", "experimental": "The X-Ray Powder Diffraction method is as follows: Instrument: Bruker D8 ADVANCE X-Ray diffractometer; Target: Cu: K-Alpha; Wavelength λ=1.54179 Å; Tube Voltage: 40 kV; Tube Current: 40 mA; Scanning scope: 4-40°; Sample Rotation speed: 15 rpm; Scanning speed: 10°/min. […] On the tenth day, all samples were removed and returned to room temperature. The appearance changes of samples were observed, and the crystal form of samples was detected by XRPD."}, "[3]": {"experiment": "Approximate solubility test of crystal form A", "assay_type": "physicochemical", "conditions": "thermodynamic from solid, room temperature (20 to 30° C.)"}, "[4]": {"test_system": "RSV respiratory syncytial virus (Along strain)", "experiment": "microbe, parasite or virus in culture", "assay_type": "cell-based", "experimental": "And then sucked it into a 37° C., 5% CO2 incubator to digest.\n3) Each T150 was suspended in 10 to 15 mL culture medium, 0.1 mL was taken and then diluted twice with trypan blue solution.\n2) CCK-8 (Dojindo-CK04-20, 6 μL/well) was added to 384 well plates with Multidrop® automatic dispenser.\n4) The data were analyzed."}, "[5]": {"experiment": "RSV long CPE assay, CC50 (in vitro toxicity)", "assay_type": "cell-based", "conditions": "human; Hep2 cells, 5 days, CCK-8 readout, n = 7", "experimental": "(§1) RSV long CPE assay Experimental Purpose: The EC50 and CC50 values of anti-RSV respiratory syncytial virus compounds were detected by cytopathology. Experimental Materials: Cell Line: Hep2 Experimental Procedures and Methods: a) Cell Inoculation (Hep2 cell) 1) The cell culture medium was removed and washed with 10 mL of PBS; 2) The preheated trypsin was added to the cleaned culture flask and rotating the flask to allow the trypsin to uniformly cover the culture flask. And then sucked it into a 37° C., 5% CO2 incubator to digest. 3) Each T150 was suspended in 10 to 15 mL culture medium, 0.1 mL was taken and then diluted twice with trypan blue solution. […] The cells were centrifuged (300 rpm) and the cells were adhered to the wall and placed in a 37° C., 5% CO2 incubator overnight. b) Compound addition: 1) The compound dissolved in 100% DMSO was diluted in a half logarithm and added to the cell plate using an Echo liquid handler. To ensure that the final concentration of DMSO was 1%; [table] […] 2) CCK-8 (Dojindo-CK04-20, 6 μL/well) was added to 384 well plates with Multidrop® automatic dispenser. […] 4) The data were analyzed."}, "[6]": {"test_system": "Hep2 cells", "experiment": "RSV long CPE assay, CC50 (in vitro toxicity)", "assay_type": "cell-based", "conditions": "conclusion from the CPE assay CC50", "experimental": "as §1"}, "[7]": {"conditions": "0 day (−20° C. Sealed Storage) (Control Sample)"}, "[8]": {"conditions": "25° C./92.5% Relative Humidity (Open)"}, "[9]": {"conditions": "60° C./75% Relative Humidity (Open)"}}}
{"smiles": "CC(C)C(=O)N1CC2(C1)C(=O)N(Cc1nc3c(n1CCCC(F)(F)F)CCCC3)c1ccccc12", "note": "[Crystal Form A, 1-Isobutyryl-1′-((1-(4,4,4-trifluorobutyl)-4,5,6,7-tetrahydro-1H-benzo[d]imidazol-2-yl)methyl)spiro[azetidine-3,3′-indolin]-2′-one]", "values": [{"measurement": "Result (crystal form by XRPD)", "setting": "[1]; 2-Methyltetrahydrofuran, stirred at 40° C.", "value": "Crystal Form A"}, {"measurement": "Result (crystal form by XRPD)", "setting": "[1]; Acetone, stirred at 40° C.", "value": "Crystal Form A"}, {"measurement": "Result (crystal form by XRPD)", "setting": "[1]; Acetone:water = 1:2, stirred at 40° C.", "value": "Crystal Form B"}, {"measurement": "Result (crystal form by XRPD)", "setting": "[1]; Dioxane, stirred at 40° C.", "value": "Crystal Form A"}, {"measurement": "Result (crystal form by XRPD)", "setting": "[1]; Ethanol, stirred at 40° C.", "value": "Crystal Form A"}, {"measurement": "Result (crystal form by XRPD)", "setting": "[1]; Ethanol:water = 3:1, stirred at 40° C.", "value": "Crystal Form B"}, {"measurement": "Result (crystal form by XRPD)", "setting": "[1]; Ethyl acetate, stirred at 40° C.", "value": "Crystal Form A"}, {"measurement": "Result (crystal form by XRPD)", "setting": "[1]; Methanol:water = 3:1, stirred at 40° C.", "value": "Crystal Form A"}, {"measurement": "Result (crystal form by XRPD)", "setting": "[1]; Toluene, stirred at 40° C.", "value": "Crystal Form A"}, {"measurement": "Character", "setting": "[2]; [7]", "value": "White Powder"}, {"measurement": "Crystal Form", "setting": "[2]; [7]", "value": "Crystal Form A"}, {"measurement": "Character", "setting": "[2]; [8]", "value": "White Powder"}, {"measurement": "Crystal Form", "setting": "[2]; [8]", "value": "Crystal Form A"}, {"measurement": "Character", "setting": "[2]; 60° C. (Open)", "value": "White Powder"}, {"measurement": "Crystal Form", "setting": "[2]; 60° C. (Open)", "value": "Crystal Form A"}, {"measurement": "Character", "setting": "[2]; [9]", "value": "White Powder"}, {"measurement": "Crystal Form", "setting": "[2]; [9]", "value": "Crystal Form A"}, {"measurement": "solubility", "setting": "[3]; acetone-water (1:2), aqueous with cosolvent or surfactant or cyclodextrin, Acetone-H2O (1:2)", "value": "< 2", "unit": "mg/mL"}, {"measurement": "solubility", "setting": "[3]; acetonitrile-water (1:1), aqueous with cosolvent or surfactant or cyclodextrin, Acetonitrile-H2O (1:1)", "value": "46 to 58", "unit": "mg/mL"}, {"measurement": "solubility", "setting": "[3]; ethanol-water (1:1), aqueous with cosolvent or surfactant or cyclodextrin, Ethanol-H2O (1:1)", "value": "2 to 2.7", "unit": "mg/mL"}, {"measurement": "solubility", "setting": "[3]; ethanol-water (3:1), aqueous with cosolvent or surfactant or cyclodextrin, Ethanol-H2O (3:1)", "value": "22 to 24.5", "unit": "mg/mL"}, {"measurement": "solubility", "setting": "[3]; isopropanol-water (1:1), aqueous with cosolvent or surfactant or cyclodextrin, Isopropanol-H2O (1:1)", "value": "2.5 to 3", "unit": "mg/mL"}, {"measurement": "solubility", "setting": "[3]; methanol-water (1:1), aqueous with cosolvent or surfactant or cyclodextrin, Methanol-H2O (1:1)", "value": "< 2", "unit": "mg/mL"}, {"measurement": "solubility", "setting": "[3]; methanol-water (3:1), aqueous with cosolvent or surfactant or cyclodextrin, Methanol-H2O (3:1)", "value": "45 to 56.5", "unit": "mg/mL"}, {"measurement": "solubility", "setting": "[3]; organic solvent or mixture, 2-Butanone", "value": "56.9 to 75.8", "unit": "mg/mL"}, {"measurement": "solubility", "setting": "[3]; organic solvent or mixture, 2-Methyltetrahydrofuran", "value": "45 to 56.7", "unit": "mg/mL"}, {"measurement": "solubility", "setting": "[3]; organic solvent or mixture, Acetone", "value": "45.9 to 57.4", "unit": "mg/mL"}, {"measurement": "solubility", "setting": "[3]; organic solvent or mixture, Acetonitrile", "value": "42 to 53.6", "unit": "mg/mL"}, {"measurement": "solubility", "setting": "[3]; organic solvent or mixture, Cyclohexane", "value": "< 2", "unit": "mg/mL"}, {"measurement": "solubility", "setting": "[3]; organic solvent or mixture, Dioxane", "value": "45 to 56.5", "unit": "mg/mL"}, {"measurement": "solubility", "setting": "[3]; organic solvent or mixture, Ethanol", "value": "42 to 52.5", "unit": "mg/mL"}, {"measurement": "solubility", "setting": "[3]; organic solvent or mixture, Ethyl acetate", "value": "29 to 34", "unit": "mg/mL"}, {"measurement": "solubility", "setting": "[3]; organic solvent or mixture, Isopropanol", "value": "13.9 to 20.9", "unit": "mg/mL"}, {"measurement": "solubility", "setting": "[3]; organic solvent or mixture, Isopropyl acetate", "value": "18 to 20.5", "unit": "mg/mL"}, {"measurement": "solubility", "setting": "[3]; organic solvent or mixture, Methanol", "value": "115 to 231", "unit": "mg/mL"}, {"measurement": "solubility", "setting": "[3]; organic solvent or mixture, Methyl isobutyl ketone", "value": "22.9 to 25.5", "unit": "mg/mL"}, {"measurement": "solubility", "setting": "[3]; organic solvent or mixture, Methyl tert-butyl ether", "value": "3 to 3.7", "unit": "mg/mL"}, {"measurement": "solubility", "setting": "[3]; organic solvent or mixture, Tetrahydrofuran", "value": "113 to 226", "unit": "mg/mL"}, {"measurement": "solubility", "setting": "[3]; organic solvent or mixture, Toluene", "value": "28 to 32.5", "unit": "mg/mL"}, {"measurement": "solubility", "setting": "[3]; organic solvent or mixture, n-Butyl alcohol", "value": "25.9 to 29.5", "unit": "mg/mL"}, {"measurement": "solubility", "setting": "[3]; organic solvent or mixture, n-Heptane", "value": "< 2", "unit": "mg/mL"}, {"measurement": "solubility", "setting": "[3]; water, H2O", "value": "< 2", "unit": "mg/mL"}]}
{"smiles": "CC(C)C(=O)N1CC2(C1)C(=O)N(Cc1nc3c(n1CCCC(F)(F)F)CCCC3)c1ccccc12", "note": "[Compound of formula (I), 1-Isobutyryl-1′-((1-(4,4,4-trifluorobutyl)-4,5,6,7-tetrahydro-1H-benzo[d]imidazol-2-yl)methyl)spiro[azetidine-3,3′-indolin]-2′-one]", "values": [{"measurement": "activity in vitro compared with BMS433771", "setting": "[4]; conclusion from the CPE assay", "value": "better activity in vitro"}, {"measurement": "EC50", "setting": "[4]; human respiratory syncytial virus, HEp-2, 120 h, Hep2 cells, RSV A long strain, 5 days, CCK-8 readout, n = 7, read-out: CPE assay EC50", "value": 7, "unit": "nM"}, {"measurement": "CC50 at 5 days", "setting": "[5]", "value": "> 100000", "unit": "nM"}, {"measurement": "cytotoxicity", "setting": "[6]", "value": "no cytotoxicity"}]}
